Laboratory results taken from US20210369753A1, “NUTRIENT COMPOSITION ABLE TO INHIBIT QUORUM SENSING” (Brilliant Lab LLC, priority 2020, published 2021).
Read-outs that look alike come from different tables or passages of the source.

Legend:
C. violaceum = settings: cited from earlier work
S. aureus = settings: cited from earlier work
P. aeruginosa = settings: cited from earlier work
P. fluorescens = settings: cited from earlier work
E. coli = E. coli O157:H7; cited from earlier work
Acinetobacter = settings: cited from earlier work
Burkholderia = settings: cited from earlier work
[1] = test system: Chromobacterium violaceum (CV026); assay: Halo assay (anti-quorum sensing); format: cell-based; settings: CV026 agar plate; for Catechin at the highest concentrations
C. violaceum (CV026) = assay: Violaceum assay (modified, butanol extraction); format: cell-based, Chromobacterium violaceum
Protocol: SUMMARY OF METHODS: (+)-Catechin was used as a positive control in the halo and violaceum assays. Varying concentrations of the composition of EXAMPLE XI or catechin mixed with C. violaceum were added to an agar plate and the generated halo was analyzed both by visual inspection and measurement. Method for Violaceum assays included adding either the composition of EXAMPLE XI or catechin to a solution of C. violaceum (strain CV026). After workup, the solutions were transferred to a 96 well plate and optical density was recorded at 590 nm. Optical density values were normalized to unextracted samples as a control.
Violaceum Assay: The violaceum assay was adapted from the method of Blosser, et al., Journal of Microbiological Methods 2000, 40, pp. 47-55. The model composition and Catechin were suspended/dissolved in ethanol. […] The OD600 of each culture was measured to be used to normalize violaceum levels to total biomass. […] The optical density was measured at 590 nm. The OD590 values were normalized to the biomass measurements determined for the unextracted samples.
VIOLACEUM ASSAY: The Violaceum assay was performed to further corroborate the results obtained in the Halo assay and to provide a quantitative measure of activity. This assay is based on the same principles as for the Halo assay, but since the assay is performed in solution, violaceum production can be more readily quantified. […]

[2] = test system: Pseudomonas aeruginosa (ATCC 10145); assay: Pyocyanin assay; format: cell-based; settings: overnight culture, test materials in DMSO and in ethanol
[3] = test system: P. aeruginosa (ATCC 10145); assay: Biofilm assay (crystal violet); format: cell-based, Pseudomonas aeruginosa; settings: 0.25-5 mg/mL, overnight, crystal violet OD 590 nm
Protocol: (§1) Biofilm assay: The biofilm assay was based on the method of Chong, et al. (2011). The model composition and Catechin were prepared at 100 mg/mL in ethanol. Appropriate volumes of each were added to eight replicate wells of a v-well 96-well plate to result in 0.25, 0.5, 1.25 and 5 mg/mL final concentrations for a 200 microliter final volume. The plate was air dried until all of the ethanol has evaporated. From fresh overnight cultures of P. aeruginosa (ATCC 10145) and S. aureus (ATCC 12600), solutions at OD600 of 0.1 were prepared in Nutrient broth/0.5% glucose. Two hundred microliters of the cultures were added to all wells and mixed by pipetting. The plates were covered with breathable films and incubated overnight without shaking at 37 degrees C. The cultures were removed, and the plates rinsed several times with water. Two hundred microliters of 0.1% crystal violet was added to each well and incubated at room temperature for 30 minutes. […] One hundred microliters of the solubilized crystal violet was transferred to a flat-bottom polystyrene plate and the optical density measured at 590 nm.
(§2) BIOFILM ASSAY: The composition of EXAMPLE XI was evaluated for anti-biofilm activity against Pseudomonas aeruginosa and Staphylococcus aureus. […]
(§3) The plates were incubated statically overnight. […] The crystal violet was quantified by measuring the optical density at 590 nm.

S. aureus (ATCC 12600) = assay: Biofilm assay (crystal violet); format: cell-based, Staphylococcus aureus; settings: 0.25-5 mg/mL, overnight, crystal violet OD 590 nm
Protocol: as §1, §2, §3

[4] = P. aeruginosa, strain not stated

## O=C(O)[C@H]1O[C@@H](Oc2cc3oc(-c4ccccc4)cc(=O)c3c(O)c2O)[C@H](O)[C@@H](O)[C@@H]1O [Baicalin]
C. violaceum; C. violaceum CV026
  inhibition of quorum sensing: inhibits quorum sensing
S. aureus
  inhibition of quorum sensing: inhibits quorum sensing

## O=C(/C=C/c1ccc(O)c(O)c1)O[C@@H]1C[C@](O)(C(=O)O)C[C@@H](O)[C@H]1O [Chlorogenic acid]
P. aeruginosa; [4]
  inhibition of quorum sensing: inhibits quorum sensing

## O=CC=Cc1ccccc1 [Cinnamaldehyde]
P. aeruginosa; P. aeruginosa PAO1
  inhibition of quorum sensing: inhibits quorum sensing
C. violaceum; C. violaceum CV026
  inhibition of quorum sensing: inhibits quorum sensing

## O=C(O[C@@H]1Cc2c(O)cc(O)cc2O[C@@H]1c1cc(O)c(O)c(O)c1)c1cc(O)c(O)c(O)c1 [EGCG]
P. aeruginosa; [4]
  inhibition of quorum sensing: inhibits quorum sensing

## COc1ccc([C@@H]2CC(=O)c3c(O)cc(O[C@@H]4O[C@H](CO[C@@H]5O[C@@H](C)[C@H](O)[C@@H](O)[C@H]5O)[C@@H](O)[C@H](O)[C@H]4O)cc3O2)cc1O [Hesperidin]
C. violaceum; C. violaceum, strain not stated
  inhibition of quorum sensing: inhibits quorum sensing
P. fluorescens
  inhibition of quorum sensing: inhibits quorum sensing

## O=C1C[C@@H](c2ccc(O)cc2)Oc2cc(O)cc(O)c21 [Naringenin]
P. aeruginosa; P. aeruginosa PAO1
  inhibition of quorum sensing: inhibits quorum sensing

## O=C(/C=C/c1ccc(O)c(O)c1)O[C@H](Cc1ccc(O)c(O)c1)C(=O)O [Rosmarinic acid]
P. aeruginosa; P. aeruginosa PAO1
  inhibition of quorum sensing: inhibits quorum sensing
E. coli
  inhibition of quorum sensing: inhibits quorum sensing
C. violaceum; C. violaceum 31532
  inhibition of quorum sensing: inhibits quorum sensing
C. violaceum; C. violaceum CV026
  inhibition of quorum sensing: inhibits quorum sensing

## C[S+]([O-])CCCCN=C=S (centres unmarked) [Sulforaphane]
P. aeruginosa; [4]
  inhibition of quorum sensing: inhibits quorum sensing

## O=C1OCC2OC(=O)c3cc(O)c(O)c(O)c3-c3c(O)c(O)c(O)c4c3C(=O)OC(C2OC(=O)c2cc(O)c(O)c(O)c2-c2c1cc(O)c(O)c2O)C1OC(=O)c2c-4c(O)c(O)c(O)c2C1O (centres unmarked) [Vescalagin]
P. aeruginosa; [4]
  inhibition of quorum sensing: inhibits quorum sensing
Acinetobacter
  inhibition of quorum sensing: inhibits quorum sensing
Burkholderia
  inhibition of quorum sensing: inhibits quorum sensing

## (+)-Catechin
[1]
  bacterial growth in halo assay: antibiotic effect inhibiting growth of the bacteria
C. violaceum (CV026); highest concentration tested, 5 mg/mL, OD590 normalized to biomass
  inhibition of violaceum production (quorum sensing): over 85%
C. violaceum (CV026); three lowest concentrations tested (1.25, 0.5 and 0.25 mg/mL)
  inhibition of violaceum production: 10-25%
[2]
  effect on pyocyanin production: slightly enhances production
[3]
  anti-biofilm activity: similar
S. aureus (ATCC 12600)
  anti-biofilm activity: similar
